According to publication PMC9525273 (Nature Communications, 2022):
Several values for one entry are separate records, joined by “and”; a condition that tells them apart may be missing. Equal entries are not always repeated. Where two headings read alike, the source gives them in different places.

Assays:
Format in all cases: cell-based, Plasmodium falciparum
NF54^G358S-2 parasites = assay: P. falciparum proliferation assay (72 h, flow cytometry, SYBR Green I/MitoTracker)
Method: (§1) For the NF54-based lines and Dd2-B2-PfATP4^G358S and its parent, assays were initiated with cultures containing predominantly ring-stage parasites with a parasitaemia of 0.3% and a haematocrit of 1%. All assays using NF54 were performed in culture media containing 10% O + human serum. The duration of the assays was 72 h and the concentration of DMSO was <0.5% (v/v). Serial dilutions of the test compounds were performed using a Tecan D300e digital dispenser, with parasite cultures added manually. Parasite survival was assessed by flow cytometry on an Intellicyt iQue3 (Essen Bioscience), with 1× SYBR Green I (Invitrogen) and 200 nM MitoTracker Deep Red FM (Invitrogen) used to stain the nucleus and the mitochondria in live parasites, respectively. The gating strategy used to quantify parasite survival, performed using FlowJo version 10 (FlowJo LLC.), is illustrated in Supplementary Fig. 9. IC50 and IC90 values were calculated by linear interpolation of the dose-response data.

NF54^CTL parasites = assay: as above
Method: as §1

NF54^G358S-1 parasites = assay: as above
Method: as §1

[1] = tested on: Dd2-PfATP4^T418N,P990R parasites; assay: P. falciparum proliferation assay (72 h, fluorescent DNA-intercalating dye)
Method: (§2) For experiments with all other parasites, the effects of compounds of interest on parasite proliferation was measured in 96-well plates containing serial dilutions of the compounds in culture medium, with a fluorescent DNA-intercalating dye used to detect surviving parasites. The assays were initiated with erythrocytes infected with predominantly ring-stage parasites, and the starting parasitaemia and haematocrit were both 1%.

[2] = tested on: Dd2-Polδ-PfATP4^G358S parasites; assay: as above
Method: as §2

[3] = tested on: HCR1 parasites (highly cipargamin-resistant clone 1); assay: as above; settings: Plasmodium falciparum
Method: as §2

[4] = tested on: HCR2 parasites (highly cipargamin-resistant clone 2); assay: as above; settings: Plasmodium falciparum
Method: as §2

Dd2 parasites = assay: as above
Method: as §2

For `N#Cc1cc(NC(=O)[C@H]2c3ccccc3C(=O)N(CC(F)(F)F)[C@@H]2c2cccnc2)ccc1F` [(+)-SJ733], the IC50 (NF54^G358S-2 parasites; NF54G358S-2, single experiments, source data of Fig. 2 (nM in Supplementary Table 5), read-out: IC50 values) was 11600 nM and 13800 nM and 13500 nM, the “FC (IC50)” value (NF54^G358S-2 parasites; NF54G358S-2 compared to NF54WT) was 138.1 fold and the “FC (IC90)” value (NF54^G358S-2 parasites; NF54G358S-2 compared to NF54WT) was 152.9 fold. For the same compound, the IC90 (NF54^G358S-2 parasites; NF54G358S-2 parasites, individual experiments, read-out: IC90 values) was 25.5 µM and 23.3 µM and 23.8 µM, the IC50 (NF54^G358S-2 parasites; Plasmodium falciparum, NF54, NF54G358S-2, 10% human serum, read-out: IC50 ± SEM) was 13000 ± 480 nM and the IC90 (NF54^G358S-2 parasites; Plasmodium falciparum, NF54, NF54G358S-2, 10% human serum, read-out: IC90 ± SEM) was 25 ± 0.892 µM. For the same compound, the IC50 (NF54^G358S-2 parasites; Plasmodium falciparum, NF54, NF54G358S-2, MEAN, source data of Fig. 2, read-out: IC50 values, MEAN) was 13000 nM, the IC50 (NF54^G358S-2 parasites; Plasmodium falciparum, NF54, NF54G358S-2, single experiments, source data of Fig. 2 (nM in Supplementary Table 5), read-out: IC50 values) was 12900 nM and the IC90 (NF54^G358S-2 parasites; Plasmodium falciparum, NF54, NF54G358S-2 parasites, individual experiments, read-out: IC90 values) was 27.3 µM. For the same compound, the IC90 (NF54^G358S-2 parasites; Plasmodium falciparum, NF54, NF54G358S-2 parasites, mean of the experiments, read-out: IC90 values, MEAN) was 25 µM, the “FC (IC50)” value (NF54^CTL parasites; NF54CTL compared to NF54WT) was 0.9 fold and the “FC (IC90)” value (NF54^CTL parasites; NF54CTL compared to NF54WT) was 0.9 fold. For the same compound, the IC90 (NF54^CTL parasites; NF54CTL parasites, individual experiments, read-out: IC90 values) was 0.13 µM and 0.155 µM and 0.157 µM, the IC50 (NF54^CTL parasites; NF54CTL, single experiments, source data of Fig. 2 (nM in Supplementary Table 5), read-out: IC50 values) was 85.7 nM and 81.4 nM and 82.7 nM and the IC90 (NF54^CTL parasites; Plasmodium falciparum, NF54, NF54CTL parasites, mean of the experiments, read-out: IC90 values, MEAN) was 0.15 µM. For the same compound, the IC50 (NF54^CTL parasites; Plasmodium falciparum, NF54, NF54CTL, MEAN, source data of Fig. 2, read-out: IC50 values, MEAN) was 84.8 nM, the IC50 (NF54^CTL parasites; Plasmodium falciparum, NF54, NF54CTL, single experiments, source data of Fig. 2 (nM in Supplementary Table 5), read-out: IC50 values) was 89.3 nM and the IC50 (NF54^G358S-1 parasites; NF54G358S-1, single experiments, source data of Fig. 2 (nM in Supplementary Table 5), read-out: IC50 values) was 12600 nM and 15300 nM and 15000 nM. For the same compound, the “FC (IC50)” value (NF54^G358S-1 parasites; NF54G358S-1 compared to NF54WT) was 148.8 fold, the “FC (IC90)” value (NF54^G358S-1 parasites; NF54G358S-1 compared to NF54WT) was 155.4 fold and the IC90 (NF54^G358S-1 parasites; NF54G358S-1 parasites, individual experiments, read-out: IC90 values) was 25.9 µM and 24.2 µM and 24.3 µM. For the same compound, the IC50 (NF54^G358S-1 parasites; Plasmodium falciparum, NF54, NF54G358S-1, 10% human serum, read-out: IC50 ± SEM) was 14000 ± 683 nM, the IC90 (NF54^G358S-1 parasites; Plasmodium falciparum, NF54, NF54G358S-1, 10% human serum, read-out: IC90 ± SEM) was 25.4 ± 0.727 µM and the IC50 (NF54^G358S-1 parasites; Plasmodium falciparum, NF54, NF54G358S-1, MEAN, source data of Fig. 2, read-out: IC50 values, MEAN) was 14000 nM. For the same compound, the IC50 (NF54^G358S-1 parasites; Plasmodium falciparum, NF54, NF54G358S-1, single experiments, source data of Fig. 2 (nM in Supplementary Table 5), read-out: IC50 values) was 13000 nM, the IC90 (NF54^G358S-1 parasites; Plasmodium falciparum, NF54, NF54G358S-1 parasites, individual experiments, read-out: IC90 values) was 27.2 µM and the IC90 (NF54^G358S-1 parasites; Plasmodium falciparum, NF54, NF54G358S-1 parasites, mean of the experiments, read-out: IC90 values, MEAN) was 25.4 µM. The IC50 ([1]; Dd2-PfATP4T418N,P990R, single experiments, source data of Fig. 2 (nM in Supplementary Table 1), read-out: IC50 values) was 359 nM and 293 nM and 333 nM and 337 nM, the IC50 ([1]; Plasmodium falciparum, DD2, Dd2-PfATP4T418N,P990R, MEAN, source data of Fig. 2, read-out: IC50 values, MEAN) was 331 nM and the IC50 ([1]; Plasmodium falciparum, DD2, Dd2-PfATP4T418N,P990R, single experiments, source data of Fig. 2 (nM in Supplementary Table 1), read-out: IC50 values) was 334 nM. The IC50 ([1]; Plasmodium falciparum, DD2, read-out: Mean IC50 value ± SEM for growth inhibition, Dd2-PfATP4T418N,P990R, Supplementary Table 1, Set 1) was 331 ± 11 nM, the IC50 ([2]; Dd2-Polδ-PfATP4G358S, single experiments, source data of Fig. 2 (nM in Supplementary Table 1), read-out: IC50 values) was 11800 nM and 8860 nM and 8730 nM and the IC50 ([2]; Plasmodium falciparum, DD2, Dd2-Polδ-PfATP4G358S, MEAN, source data of Fig. 2, read-out: IC50 values, MEAN) was 9070 nM. For the same compound, the IC50 ([2]; Plasmodium falciparum, DD2, Dd2-Polδ-PfATP4G358S, single experiments, source data of Fig. 2 (nM in Supplementary Table 1), read-out: IC50 values) was 6890 nM, the IC50 ([2]; Plasmodium falciparum, DD2, SET-2, read-out: Mean IC50 value ± SEM for growth inhibition, Dd2-Polδ-PfATP4G358S, Supplementary Table 1, Set 2) was 9070 nM and the IC50 ([3]; HCR1, MEAN, source data of Fig. 2, read-out: IC50 values, MEAN) was 21.5 µM. It also gave an IC50 ([3]; read-out: Mean IC50 value ± SEM for growth inhibition, HCR1, Supplementary Table 1, Set 1) of 21.5 µM, an IC50 ([4]; HCR2, MEAN, source data of Fig. 2, read-out: IC50 values, MEAN) of 17.6 µM and an IC50 ([4]; read-out: Mean IC50 value ± SEM for growth inhibition, HCR2, Supplementary Table 1, Set 1) of 17.6 µM. The IC50 (Dd2 parasites; Plasmodium falciparum, DD2, read-out: IC50 values, Dd2, single experiments, source data of Fig. 2 (nM in Supplementary Table 1)) was 58.3 nM, the IC50 (Dd2 parasites; Plasmodium falciparum, DD2, read-out: IC50 values, MEAN, Dd2, MEAN, source data of Fig. 2) was 59.6 nM and the IC50 (Dd2 parasites; Plasmodium falciparum, DD2, read-out: Mean IC50 value ± SEM for growth inhibition, Dd2, Supplementary Table 1, Set 1) was 60 ± 2 nM. The IC50 (Dd2 parasites; read-out: IC50 values, Dd2, single experiments, source data of Fig. 2 (nM in Supplementary Table 1)) was 66.6 nM and 57.7 nM and 59 nM and 56.4 nM.
